Measurements taken from patent US3997557A, “Substituted N-aminoalkylpyrroles” (American Hoechst Corporation, priority 1974, dated 1976).
Counter-ions that a name gives are not always drawn.

Legend:
central nervous system = assay: Mouse observation procedure of S. Irwin, central nervous system depressant effects (tranquilizer); format: in vivo; details: male COBS mice, behavior and reflex depression, muscle relaxation, read-out: minimum effective dose (MED)/Kilogram of body weight
Procedure: The compounds of the invention are useful as tranquilizers because of their depressant effects on the central nervous system. The depressant effects on the central nervous system were evaluated according to the mouse observation procedure of S. Irwin, Psychopharmacologia, 13, 222 (1968). Male COBS mice are dosed with the drug, and its effects on behavior and reflex depression together with muscle relaxation determined by the degree of deviation from control scores, with activity expressed in terms of minimum effective dose (MED). The effectiveness of compounds of the invention as tranquilizers is illustrated in Table I below.

isolated rabbit atrium = assay: Isolated rabbit atrium, increase in functional refractory period (antiarrhythmic); details: Oryctolagus cuniculus; for activation at 20 µM: 2 × 10^-5 molar; for activation at 10 µM: 10^-5 molar; for activation at 1 µM: 10^-6 molar
Procedure: The compounds of the invention are useful as antiarrhythmic agents because of their ability to alleviate cardiac arrhythmias. […] 198] wherein the compounds effect an increase in the functional refractory period. Compounds are dissolved in Krebs-Henseleit solution, and the percent change in the functional refractory period is monitored with an oscilloscope. […] Similarly at a concentration of 10^-^6 molar 1-(3-dimethylaminopropyl)-2-(p-bromophenyl)-4,5,6,7-tetrahydroindole hydrochloride and 1-(2-methylaminoethyl)-2-phenyl-1,4,5,6,7,8-hexahydrocyclohepta[b]pyrrole hydrochloride each effect a 150% increase in the functional refractory period.

[1] = system: spontaneous hypertensive rat; assay: Lowering of blood pressure in the spontaneous hypertensive rat, indirect tail cuff method; format: in vivo; details: 100 mg/kg of body weight
Procedure: The compounds of this invention are also useful as antihypertensive agents because of their ability to lower blood pressure in mammals. […] 135. For example, at a dose of 100 mg/kg of body weight, the compounds shown in Table III below effect the corresponding decrease in systolic blood pressure.

[2] = system: carrageenin-induced rat paw edema; assay: Carrageenin-induced rat paw edema antiinflammatory assay; format: in vivo; details: 200 mg/kg of body weight
Description: The compounds of this invention are useful as antiinflammatory agents because of their ability to suppress inflammation in mammals. […] Exp. Biol. Med. III, 544 (1962)].

## CCNCCn1c(-c2ccccc2)cc2c1CCCC2 [Example 3, 1-(2-ethylaminoethyl)-2-phenyl-4,5,6,7-tetrahydroindole . oxalate]
Central nervous system
  minimal effective dose: 25 mg/kg

## CN(C)CCCn1c2c(c(-c3ccccc3)c1-c1ccccc1)CCCC2.O.O=C(O)C(=O)O [Example 28, 1-(3-dimethylaminopropyl)-2,3-diphenyl-4,5,6,7-tetrahydroindole oxalate monohydrate]
Central nervous system
  minimal effective dose: 25 mg/kg

## CNCCn1c(-c2cccc(C(F)(F)F)c2)cc2c1CCCC2 [Example 14]
Central nervous system
  minimal effective dose: 25 mg/kg
Isolated rabbit atrium
  activation at 20 µM: 200%

## CCN(CC)CCn1c(-c2ccccc2)cc2c1CCC(C(C)(C)C)C2.Cl (stereo not shown) [Example 25, 1-(2-diethylaminoethyl)-2-phenyl-5-(t-butyl)-4,5,6,7-tetrahydroindole hydrochloride]
Central nervous system
  minimal effective dose: 20 mg/kg
[1]
  decrease in systolic blood pressure: 30 mm Hg

## CNCCCn1c(-c2ccccc2)cc2c1CCCCC2 [Example 39, 1-(3-methylaminopropyl)-2-phenyl-1,4,5,6,7,8-hexahydrocyclohepta[b]pyrrole . HCl]
Central nervous system
  minimal effective dose: 50 mg/kg
[1]
  decrease in systolic blood pressure: 42 mm Hg
Isolated rabbit atrium
  activation at 10 µM: 214%

## CN(C)CCCn1c(-c2ccccc2)cc2c1CCc1ccccc1-2 [Example 31, hydrochloride]
Central nervous system
  minimal effective dose: 20 mg/kg
[1]
  decrease in systolic blood pressure: 30 mm Hg
[2]
  inhibition in vivo at 200 mg/kg: 56%

## CC(C)NCCCn1c(-c2ccccc2)cc2c1CCCCC2 [Example 43, 1-(3-isopropylaminopropyl)-2-phenyl-1,4,5,6,7,8-hexahydrocyclohepta[b]pyrrole . oxalate]
Central nervous system
  minimal effective dose: 37 mg/kg

## CN(C)CCCn1c(-c2ccc(N)cc2)cc2c1CCCCCC2 [1-(3-dimethylaminopropyl)-2-(p-aminophenyl)-4,5,6,7,8,9-hexahydrocycloocta[b]pyrrole]
[2]
  inhibition in vivo at 200 mg/kg: 57%

## CN(C)CCCn1c(-c2ccccc2)cc2c1-c1ccccc1CC2.Cl [Example 30, 1-(3-dimethylaminopropyl)-2-phenyl-4,5-dihydrobenz[g]indole hydrochloride]
[1]
  decrease in systolic blood pressure: 24 mm Hg

## CC(CN(C)C)n1c(-c2ccccc2)cc2c1CCCCC2 (stereo not shown) [Example 38, 1-(1-methyl-2-dimethylaminoethyl)-2-phenyl-1,4,5,6,7,8-hexahydrocyclohepta[b]pyrrole . oxalate]
Central nervous system
  minimal effective dose: 6 mg/kg
[2]
  inhibition in vivo at 200 mg/kg: 58%

## CNCCCn1c(-c2ccc(OC)cc2)cc2c1CCCCC2.O=C(O)C(=O)O [Example 49, 1-(3-methylaminopropyl)-2-(p-methoxyphenyl)-1,4,5,6,7,8-hexahydrocyclohepta[b]-pyrrole oxalate]
Central nervous system
  minimal effective dose: 10 mg/kg

## CNCCn1c(-c2ccccc2)cc2c1CCCCC2.Cl [Example 36, 1-(2-methylaminoethyl)-2-phenyl-1,4,5,6,7,8-hexahydrocyclohepta[b]pyrrole hydrochloride]
Central nervous system
  minimal effective dose: 50 mg/kg
Isolated rabbit atrium
  activation at 1 µM: 150%

## CC(C)NC(C)Cn1c(-c2ccc(Cl)cc2)cc2c1CCCC2.Cl (stereo not shown) [Example 21, 1-(2-isopropylaminopropyl)-2-(p-chlorophenyl)-4,5,6,7-tetrahydroindole hydrochloride]
Central nervous system
  minimal effective dose: 50 mg/kg

## CC(C)N(CCn1c(-c2ccc(O)cc2)cc2c1CCCC2)C(C)C [Example 23, 1-(2-diisopropylaminoethyl)-2-(p-hydroxyphenyl)-4,5,6,7-tetrahydroindole]
[2]
  inhibition in vivo at 200 mg/kg: 44%

## CN(C)CCn1c(-c2ccccc2)cc2c1CCCCC2 [Example 37, 1-(2-dimethylaminoethyl)-2-phenyl-1,4,5,6,7,8-hexahydrocyclohepta[b]pyrrole . HCl]
[1]
  decrease in systolic blood pressure: 45 mm Hg

## COc1cc(-c2cc3c(n2CCCN(C)C)CCCCC3)cc(OC)c1OC.Cl [Example 54, 1-(3-dimethylaminopropyl)-2-(3,4,5-trimethoxyphenyl)-1,4,5,6,7,8-hexahydrocyclohepta[b]pyrrole hydrochloride]
Central nervous system
  minimal effective dose: 50 mg/kg

## CN(C)CCCn1c(-c2ccccc2)cc2c1CCCCCC2.Cl [Example 56, 1-(3-dimethylaminopropyl)-2-phenyl-4,5,6,7,8,9-hexahydrocycloocta[b]pyrrole hydrochloride]
[1]
  decrease in systolic blood pressure: 50 mm Hg

## CNCCCn1c(-c2ccccc2)cc2c1CCC2.O=C(O)C(=O)O [Example 34, 1-(3-methylaminopropyl)-2-phenyl-1,4,5,6-tetrahydrocyclopenta[b]pyrrole oxalate]
Central nervous system
  minimal effective dose: 25 mg/kg

## CN(C)CCn1c(-c2ccccc2)cc2c1CCCC2 [Example 1, 1-(2-dimethylaminoethyl)-2-phenyl-4,5,6,7-tetrahydroindole hydrochloride]
[2]
  inhibition in vivo at 200 mg/kg: 47%
Isolated rabbit atrium
  activation at 20 µM: 25%

## CN(C)CCCn1c(-c2ccc([N+](=O)[O-])cc2)cc2c1CCCCCC2 [Example 58, 1-(3-dimethylaminopropyl)-2-(p-nitrophenyl)-4,5,6,7,8,9-hexahydrocycloocta[b]-pyrrole hydrochloride]
Isolated rabbit atrium
  activation at 10 µM: 125%

## c1ccc(-c2cc3c(n2CCN2CCNCC2)CCCC3)cc1 [Example 5, 1-[2-(1-piperazinylethyl)]-2-phenyl-4,5,6,7-tetrahydroindole . dioxalate]
Central nervous system
  minimal effective dose: 10 mg/kg

## CN(C)CCCn1c(-c2cccc(C(F)(F)F)c2)cc2c1CCCC2 [1-(3-dimethylaminopropyl)-2-(m-trifluoromethylphenyl)-4,5,6,7-tetrahydroindole]
Central nervous system
  minimal effective dose: 40 mg/kg

## CCN(CC)CCCn1c(-c2ccccc2)cc2c1CCc1ccccc1-2 [1-(3-diethylaminopropyl)-2-phenyl-4,5-dihydrobenz[e]-indole]
Central nervous system
  minimal effective dose: 20 mg/kg

## CN(C)CCCn1c(-c2ccccc2)cc2c1CCCC2 [Example 6, 1-(3-dimethylaminopropyl)-2-phenyl-4,5,6,7-tetrahydroindole . HCl]
[2]
  inhibition in vivo at 200 mg/kg: 45%

## CN(C)CCCn1c(-c2ccccc2)cc2c1CCC2.Cl [Example 35, 1-(3-dimethylaminopropyl)-2-phenyl-1,4,5,6-tetrahydrocyclopenta[b]pyrrole hydrochloride]
Central nervous system
  minimal effective dose: 50 mg/kg
Isolated rabbit atrium
  activation at 20 µM: 233%

## CN(C)CCCn1c(-c2ccc(F)cc2)cc2c1CCCCCC2 [Example 60, 1-(3-dimethylaminopropyl)-2-(p-fluorophenyl)-4,5,6,7,8,9-hexahydrocycloocta[b]pyrrole oxalate]
Isolated rabbit atrium
  activation at 10 µM: 139%

## CCN(CC)CCn1c(-c2ccccc2)cc2c1CCC(C)C2 (stereo not shown) [Example 24, 1-(2-diethylaminoethyl)-2-phenyl-5-methyl-4,5,6,7-tetrahydroindole hydrochloride]
Isolated rabbit atrium
  activation at 10 µM: 208%

## CN(C)CCCn1c(-c2ccc(F)cc2)cc2c1CCCCC2.Cl [Example 55, 1-(3-dimethylaminopropyl)-2-(p-fluorophenyl)-1,4,5,6,7,8-hexahydrocyclohepta[b]pyrrole hydrochloride]
Central nervous system
  minimal effective dose: 50 mg/kg

## CCNCCn1c(-c2ccccc2)cc2c1CCCCCC2.O=C(O)C(=O)O [Example 57, 1-(2-ethylaminoethyl)-2-phenyl-4,5,6,7,8,9-hexahydrocycloocta[b]pyrrole oxalate]
Central nervous system
  minimal effective dose: 25 mg/kg

## CN(C)CCCn1c(-c2ccc(Br)cc2)cc2c1CCCC2 [Example 12, 2-(p-bromophenyl)-1-(3-dimethylaminopropyl)-4,5,6,7-tetrahydroindole hydrochloride]
Isolated rabbit atrium
  activation at 1 µM: 150%

## CN(C)CCCn1c(-c2ccc(Cl)cc2)cc2c1CCCC2 [1-(3-dimethylaminopropyl)-2-(p-chlorophenyl)-4,5,6,7-tetrahydroindole]
[2]
  inhibition in vivo at 200 mg/kg: 44%

## COc1ccc(-c2cc3c(n2CCCN(C)C)CCCC3)cc1.Cl [Example 11, 1-(3-dimethylaminopropyl)-2-(p-methoxyphenyl)-4,5,6,7-tetrahydroindole hydrochloride]
Central nervous system
  minimal effective dose: 50 mg/kg
[2]
  inhibition in vivo at 200 mg/kg: 44%
Isolated rabbit atrium
  activation at 10 µM: 300%

## CN(C)CCCn1c(-c2ccc(N)cc2)cc2c1CCCCCC2.O.O=C(O)C(=O)O.O=C(O)C(=O)O [Example 59, 1-(3-dimethylaminopropyl)-2-(p-aminophenyl)-4,5,6,7,8,9-hexahydrocycloocta[b]pyrrole dioxalate monohydrate]
Central nervous system
  minimal effective dose: 25 mg/kg

## CNCCn1c(-c2cccc(C(F)(F)F)c2)cc2c1CCCC2 [1-(2-methylaminoethyl)-2-(m-trifluoromethylphenyl)-4,5,6,7-tetrahydroindole]
[2]
  inhibition in vivo at 200 mg/kg: 58%

## CCN(CC)CCCn1c(-c2ccccc2)cc2c1CCc1ccccc1-2 [Example 32, hydrochloride]
[1]
  decrease in systolic blood pressure: 40 mm Hg
[2]
  inhibition in vivo at 200 mg/kg: 72%

## CC(CN(C)C)n1c(-c2cccc(C(F)(F)F)c2)cc2c1CCCC2 (stereo not shown) [1-(1-methyl-2-dimethylaminoethyl)-2(m-trifluoromethylphenyl)-4,5,6,7-tetrahydroindole . HCl]
[2]
  inhibition in vivo at 200 mg/kg: 46%
